Results as given in article PMC6930524, “A Prospective Repurposing of Dantrolene as a Multitarget Agent for Alzheimer’s Disease” (Molecules, 2019).

Tests used:
[1] = system: CAC mutants C136S, C155S, C136/155S, C-lessV; experiment: Transport activity of cysteine-modified CAC mutants in proteoliposomes; type: biochemical, rat; settings: 10 μM, C-less V compared with WT
Experimental: The reducing properties of DAN were studied on the recombinant WT CAC with the protein at different states of oxidation. Figure 8B highlights that when the carrier was incubated during the transport activity with 1 mM dithioerythritol (DTE), 10 µM DAN was able to reduce a major aliquot of oxidized protein (70% recovery of activity compared to the control). […] To identify the cysteines responsible for the activation of the CAC carrier, the proteoliposomes of the WT protein and the mutants C136S, C155S, C136/155S, and C-lessV (C23V/C58V/C89S/C136V/C155V/C283S) were incubated with 10 μM DAN. […] Further evidence of the reducing action of DAN on CAC was obtained by oxidation of the reconstituted WT protein under controlled conditions, i.e., in the presence or absence of hydrogen peroxide and its subsequent degradation by the enzyme catalase. […]
Before starting the transport activity, proteoliposomes were passed through a Sephadex G-75 column (0.7 cm diameter; 15 cm height; Pharmacia, Milan, Italy) to remove the external substrate. […] Finally, the external substrate was removed by chromatography on Sephadex G-75 columns (0.7 cm diameter; 10 cm height) and intraliposomal radioactivity was measured by a liquid scintillation counter (Perkin Elmer, Milan, Italy).

[2] = DPPH radical scavenging assay; type: physicochemical; settings: compound 50 μM, DPPH 100 μM
Source text: Starting from these evidences, we tested DAN in two in vitro models of radical scavenging activity, i.e., the 1,1-diphenyl-2-picryl-hydrazyl (DPPH) and 2,2′-azinobis-(3-ethylbenzothiazoline-6-sulfonic acid) (ABTS) free radical production. Both generate stable nitrogen radicals showing high absorption in visible spectrum, thus allowing easy and straightforward spectrophotometric measures. […] It can be assumed that the antioxidant activity of DAN is independent from its radical scavenging properties.
Already published protocols for DPPH and […] radical scavenging were used. The scavenging of the radical DPPH^·, or the monocation radical ABTS^·+, were determined by measuring the loss of absorbance at 515 or 755 nm, respectively. Samples were prepared in clear polystyrene flat-bottomed 96-well microplates. […] A preliminary absorbance reading at 755 nm allowed to determine the actual ABTS^·+ concentration (normally 60–70 μM; extinction coefficient ε = 12,000) and set the final concentration of inhibitors to 0.2[ABTS^·+]. 215 μL of ABTS^·+ solution were mixed with 35 μL of stock solution of inhibitors and the decrease in absorbance was monitored. Antioxidant activity was determined from Equation (2) as the percentage of radical production of inhibitor containing samples, compared with control: % radical production = 100 × ABSsample/ABScontrol(2)

Structure (SMILES): O=C1CN(/N=C/c2ccc(-c3ccc([N+](=O)[O-])cc3)o2)C(O)=N1 [Dantrolene]
- increase in transport activity on cysteine mutants [1]: significantly lost
- DPPH radical scavenging activity [2]: no activity
